As usually defined, the IC50 is the concentration needed to halve the response being measured.

The subject of assay [1] is SH-SY5Y cells. Nature of the assay: sAPPβ release assay.
Assay [2] has as its target T1, Human BACE2 (Homo sapiens, UniProt Q9Y5Z0).
T1 construct: the soluble part of the human β-Secretase2 (AA1-AA473) was cloned using BACE2(1-473)-(AVT)-Fc-pDEST12.2 mammalian expression vector; AVT linker (C); made in house
T1 sequence (Q9Y5Z0 21-473): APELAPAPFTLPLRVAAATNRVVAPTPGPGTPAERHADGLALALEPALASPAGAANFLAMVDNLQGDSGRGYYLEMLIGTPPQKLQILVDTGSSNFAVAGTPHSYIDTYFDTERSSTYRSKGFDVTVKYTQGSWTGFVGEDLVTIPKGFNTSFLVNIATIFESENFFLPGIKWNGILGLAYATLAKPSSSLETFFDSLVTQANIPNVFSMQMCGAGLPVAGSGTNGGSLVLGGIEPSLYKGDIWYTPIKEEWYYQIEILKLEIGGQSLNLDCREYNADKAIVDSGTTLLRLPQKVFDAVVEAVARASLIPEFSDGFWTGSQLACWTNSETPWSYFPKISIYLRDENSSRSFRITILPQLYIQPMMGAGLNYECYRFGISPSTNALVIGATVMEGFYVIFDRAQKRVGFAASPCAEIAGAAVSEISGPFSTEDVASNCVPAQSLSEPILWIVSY
The assay can be described thus: TR-FRET assay. In kind it is biochemical. The following applies: substrate 100 nM, pH4.5. The protocol: (§1) The β-secretase enzyme used in the TR-FRET was prepared as follows:
(§2) Human BACE1: the cDNA for the soluble part of the human β-Secretase1 (AA1-AA460) was cloned using the BACE1(1-460)-(AVT)-Fc-pGEN-IRES-neo mammalian expression vector. The gene was fused to the Fe domain of IgG1 (affinity tag) and stably cloned into HEK 293 cells. […]
A multidrop Combi was used for the liquid handling. Enzyme (7 μL) was added to the compound plate (containing 0.8 μL of compound in dimethylsulphoxide). The plate was incubated for 10 minutes. Substrate (8 μL) was then added, and the reaction proceeded for 17 minutes at r.t. The reaction was stopped with the addition of Stop solution (5.5 μL, NaOAC, pH 9). Fluorescence was measured on a Pherastar plate reader using HTRF module. […] 5 reference inhibitors with different affinities were used at all screen occasions in dose response.
In general terms: In TR-FRET formats the signal depends on donor and acceptor labels being close together.

Assay [3] deals with T2, Human BACE1 (Homo sapiens, UniProt P56817).
T2 construct: the soluble part of the human β-Secretase1 (AA1-AA460) was cloned using the BACE1(1-460)-(AVT)-Fc-pGEN-IRES-neo mammalian expression vector; AVT linker (C); made in house
T2 sequence (P56817 22-460): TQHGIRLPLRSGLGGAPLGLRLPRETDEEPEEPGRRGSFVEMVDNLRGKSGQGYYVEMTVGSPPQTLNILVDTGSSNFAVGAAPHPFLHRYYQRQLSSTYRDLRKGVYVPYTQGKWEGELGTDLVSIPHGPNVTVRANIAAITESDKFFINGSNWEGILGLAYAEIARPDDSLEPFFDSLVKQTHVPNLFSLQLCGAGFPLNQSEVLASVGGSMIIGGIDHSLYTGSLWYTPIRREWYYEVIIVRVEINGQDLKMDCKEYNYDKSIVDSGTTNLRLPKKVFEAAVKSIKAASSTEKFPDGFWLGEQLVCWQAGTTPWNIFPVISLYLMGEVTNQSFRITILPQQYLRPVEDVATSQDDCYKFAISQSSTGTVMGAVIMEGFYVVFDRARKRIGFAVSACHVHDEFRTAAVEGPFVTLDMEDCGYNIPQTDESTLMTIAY
The assay can be described thus: Diluted TR-FRET assay. In kind it is biochemical. The following applies: 50 times less enzyme, 6.5 h reaction time at r.t.; read-out: IC50 BACE1 (dil. TR-FRET). The protocol:
as §1, §2
A multidrop Combi was used for the liquid handling. Enzyme (7 μL) was added to the compound plate (containing 0.8 μL of compound in dimethylsulphoxide). The plate was incubated for 10 minutes. […] The reaction was stopped with the addition of Stop solution (5.5 μL, NaOAC, pH 9). Fluorescence was measured on a Pherastar plate reader using HTRF module. […] 5 reference inhibitors with different affinities were used at all screen occasions in dose response.

The mark [4] stands for this setting: Homo sapiens, SH-SY5Y, read-out: IC50 Cell (sAPPβ release, nM), SH-SY5Y cells, compounds incubated 16-17 h.
The mark [5] stands for this setting: read-out: IC50 Cell (sAPPβ release), SH-SY5Y cells, compounds incubated 16-17 h.

Read-outs that look alike come from different tables or passages of the source.

As to `CO[C@H]1CC[C@]2(CC1)Cc1ccc(-c3cncc(C(F)(F)F)c3)cc1C21COC(N)=N1` (stereo partly drawn) [Compound 42, (1r,4r)-4-methoxy-6′-(5-(trifluoromethyl)pyridin-3-yl)-3′H,5″H-dispiro[cyclohexane-1,2′-indene-1′,4″-oxazol]-2″-amine], the IC50 in assay [1] (setting [4]) came to 7.3 nM; in assay [2] (enzyme 2.7 μg/mL), 221 nM; in assay [3], 307 nM.

`[2H]C1([2H])OC(N)=N[C@]12c1cc(-c3cccc(Cl)c3)ccc1C[C@]21CC[C@@H](OC)[C@H](C)C1` [Compound 37, (1R,1′R,3R,4R)-6′-(3-chlorophenyl)-4-methoxy-3-methyl-3′H,5″H-dispiro[cyclohexane-1,2′-indene-1′,4″-oxazol]-5″,5″-d2-2″-amine]: the values for the IC50 in assay [1] (setting [4]), in assay [2] (enzyme 2.7 μg/mL) and in assay [3] were 3.7 nM, 17.4 nM and 12.8 nM, respectively.

As for `[2H]C([2H])([2H])O[C@H]1CC[C@@]2(Cc3ccc(-c4cncc(C#N)c4)cc3[C@]23N=C(N)OC3([2H])[2H])C[C@@H]1C` [Compound 105, {(1S,1′R,3S,4S)-6′-(5-cyanopyridin-3-yl)-4-(methoxy-d3)-3-methyl-3′H,5″H-dispiro[cyclohexane-1,2′-indene-1′,4″-oxazol]-5″,5″-d2-2″-amine}], the IC50 stood at 0.4 nM in assay [1] (setting [4]), 71 nM in assay [2] (enzyme 2.7 μg/mL) and 13 nM in assay [3].

With `CO[C@H]1CC[C@]2(CC1)Cc1ccccc1C21COC(N)=N1` (stereo partly drawn) [Compound 64, (1r,4r)-4-methoxy-3′H,5″H-dispiro[cyclohexane-1,2′-indene-1′,4″-oxazol]-2″-amine], the IC50 in assay [1] (setting [4]) was 307 nM; in assay [2] (enzyme 2.7 μg/mL) it was more than 5000 nM; in assay [3] it was more than 5000 nM.

Consider “(1′R,4′S)-4′-methoxy-6″-(pyrimidin-5-yl)-3″H,5′″H-trispiro[cyclopropane-1,3′-cyclohexane-1′,2″-indene-1″,4′″-oxazol]-5′″,5′″-d2-2′″-amine and (1′S,4′R)-4′-methoxy-6″-(pyrimidin-5-yl)-3″H,5′″H-trispiro[cyclopropane-1,3′-cyclohexane-1′,2″-indene-1″,4′″-oxazol]-5′″,5′″-d2-2′″-amine [Compound 86]”, for which the IC50 in assay [1] (setting [5]) was 5.9 nM; in assay [2] (enzyme […]) it was 4750 nM; in assay [3] it was 144 nM.

Consider `[2H]C1([2H])OC(N)=N[C@]12c1cc(-c3cncc(C#N)c3)ccc1C[C@@]21CC[C@H](OC)[C@@H](C)C1` [Compound 113, {(1S,1′R,3S,4S)-4-methoxy-3-methyl-6′-(5-cyanopyridin-3-yl)-3′H,5″H-dispiro[cyclohexane-1,2′-indene-1′,4″-oxazol]-5″,5″-d2-2″-amine}], for which the IC50 in assay [1] (setting [4]) is 0.2 nM; in assay [2] (enzyme 2.7 μg/mL) it was 64 nM; in assay [3] it was 17 nM.

On to `CO[C@H]1CC[C@]2(CC1)Cc1ccc(-c3cncc(C#N)c3)cc1C21COC(N)=N1` (stereo partly drawn) [Compound 46, 5-((1r,4r)-2″-amino-4-methoxy-3′H,5″H-dispiro[cyclohexane-1,2′-indene-1′,4″-oxazol]-6′-yl)nicotinonitrile], for which the IC50 is 8.8 nM in assay [1] (setting [4]), 300 nM in assay [2] (enzyme 2.7 μg/mL) and 219 nM in assay [3].

With `[2H]C1([2H])OC(N)=NC12c1cc(/C=N/OC3CCC3)ccc1C[C@]21CC[C@@H](OC)CC1` (stereo partly drawn) [Compound 61, (E)-2″-amino-4-methoxy-3′H,5″H-dispiro[cyclohexane-1,2′-indene-1′,4″-oxazole]-5″,5″-d2-6′-carbaldehyde O-cyclobutyl oxime], the figures for the IC50 in assay [1] (setting [4]), in assay [2] (enzyme 2.7 μg/mL) and in assay [3] were 207 nM, 3440 nM and 1960 nM, respectively.

Consider `[2H]C1([2H])OC(N)=NC12c1cc(-c3cncnc3)ccc1C[C@@]21CC[C@H](O)[C@@H](C)C1` (stereo partly drawn) [Compound 63, (1S,3S,4S)-2″-amino-3-methyl-6′-(pyrimidin-5-yl)-3′H,5″H-dispiro[cyclohexane-1,2′-indene-1′,4″-oxazol]-5″,5″-d2-4-ol], for which the figures for the IC50 in assay [1] (setting [4]), in assay [2] (enzyme 2.7 μg/mL) and in assay [3] were 266 nM, more than 5000 nM and 1460 nM, respectively.

With `[2H]C([2H])([2H])O[C@@H]1CC[C@]2(Cc3ccc(-c4cnccc4F)cc3[C@]23N=C(N)OC3([2H])[2H])C[C@H]1C` [Compound 107, {(1R,1′R,3R,4R)-4-(methoxy-d3)-3-methyl-6′-(4-fluoropyridin-3-yl)-3′H,5″H-dispiro[cyclohexane-1,2′-indene-1′,4″-oxazol]-5″,5″-d2-2″-amine}], the results for the half-maximal inhibitory concentration (IC50) in assay [1] (setting [4]), in assay [2] (enzyme 2.7 μg/mL) and in assay [3] were 1.8 nM, 2110 nM and 294 nM, respectively.

For `[2H]C1([2H])OC(N)=NC12c1cc(-c3cc(C#N)cc(OC)c3)ccc1C[C@@]21C[C@@H](C)[C@H](OC)[C@@H](C)C1` (stereo partly drawn) [Compound 32, 3-((1r,3R,4r,5S)-2″-amino-4-methoxy-3,5-dimethyl-3′H,5″H-dispiro[cyclohexane-1,2′-indene-1′,4″-oxazol]-6′-yl-5″,5″-d2)-5-methoxybenzonitrile], the concentration for half-maximal inhibition (IC50) in assay [1] (setting [4]) is 2.8 nM; in assay [2] (enzyme 2.7 μg/mL) it was 26.2 nM; in assay [3], 7.3 nM.

Turning to `CC1(C2CCOCC2)Cc2ccc(-c3cncnc3)cc2C12COC(N)=N2` (stereo not drawn) [Compound 95, 2-methyl-6-(pyrimidin-5-yl)-2-(tetrahydro-2H-pyran-4-yl)-2,3-dihydro-5′H-spiro[indene-1,4′-oxazol]-2′-amine], the IC50 is 889 nM in assay [1] (setting [5]), more than 5000 nM in assay [2] (enzyme 2.7 μg/mL) and more than 5000 nM in assay [3].

Consider `[2H]C1([2H])OC(N)=NC12c1cc(-c3cc(C#N)cc(OC)c3)ccc1C[C@]21CC[C@@H](O)[C@H](C)C1` (stereo partly drawn) [Compound 58, 3-((1R,3R,4R)-2″-amino-4-hydroxy-3-methyl-3′H,5″H-dispiro[cyclohexane-1,2′-indene-1′,4″-oxazol]-6′-yl-5″,5″-d2)-5-methoxybenzonitrile], for which the values for the IC50 in assay [1] (setting [4]), in assay [2] (enzyme 2.7 μg/mL) and in assay [3] were 102 nM, 139 nM and 301 nM, respectively.

For the compound `[2H]C1([2H])OC(N)=N[C@]12c1cc(-c3cc(F)cc(C#N)c3)ccc1C[C@@]21CC[C@H](OC)[C@@H](C)C1` [Compound 19, 3-((1S,1′R,3S,4S)-2″-amino-4-methoxy-3-methyl-3′H,5″H-dispiro[cyclohexane-1,2′-indene-1′,4″-oxazol]-6′-yl-5″,5″-d2)-5-fluorobenzonitrile], the IC50 in assay [1] (setting [4]) is 2 nM; in assay [2] (enzyme 2.7 μg/mL), 43.6 nM; in assay [3], 244 nM.

As to `[2H]C1([2H])OC(N)=N[C@]12c1cc(C#CC(C)C)ccc1C[C@@]21CC[C@H](O)[C@@H](C)C1` (racemic) [Compound 11, (1S,3S,4S)-2″-amino-3-methyl-6′-(3-methylbut-1-yn-1-yl)-3′H,5″H-dispiro[cyclohexane-1,2′-indene-1′,4″-oxazol]-5″,5″-d2-4-ol and (1R,3R,4R)-2″-amino-3-methyl-6′-(3-methylbut-1-yn-1-yl)-3′H,5″H-dispiro[cyclohexane-1,2′-indene-1′,4″-oxazol]-5″,5″-d2-4-ol], the IC50 in assay [1] (setting [4]) stood at 0.9 nM; in assay [2] (enzyme 2.7 μg/mL) it was 519 nM; in assay [3], 266 nM.

Regarding `[2H]C1([2H])OC(N)=N[C@]12c1cc(-c3cncc(C4CC4)c3)ccc1C[C@@]21CC[C@H](OC)[C@@H](C)C1` [Compound 6, (1S,1′R,3S,4S)-6′-(5-cyclopropylpyridin-3-yl)-4-methoxy-3-methyl-3′H,5″H-dispiro[cyclohexane-1,2′-indene-1′,4″-oxazol]-5″,5″-d2-2″-amine], the IC50 in assay [1] (setting [4]) turned out to be 2.2 nM; in assay [2] (enzyme 2.7 μg/mL), 99 nM; in assay [3], 54 nM.

For `[2H]C1([2H])OC(N)=NC12c1cc(OCCC(F)(F)F)ccc1C[C@]21CC[C@@H](OC)CC1` (stereo partly drawn) [Compound 45, (1r,4r)-4-methoxy-6′-(3,3,3-trifluoropropoxy)-3′H,5″H-dispiro[cyclohexane-1,2′-indene-1′,4″-oxazol]-5″,5″-d2-2″-amine], the figures for the IC50 in assay [1] (setting [4]), in assay [2] (enzyme 2.7 μg/mL) and in assay [3] were 7.8 nM, 589 nM and 289 nM, respectively.
